pIC50: −log10 of the molar value. Where a SMILES comes first, the peptide text is derived from it.
Molecular target: HLA B*1503 (Homo sapiens, UniProt P01889, A329T/A93T/A95T/C349S/D201E/D98Y/E187L/E204Q/K202T/N87E/Q94N/R155S/R180L/S121R/S35A/V306I/V36M/Y140S/Y91S)
Assay: biochemical
Assay type: binding

Compound	pIC50
CSCC[C@H](NC(=O)[C@@H](NC(=O)[C@H](CO)NC(=O)[C@@H](NC(=O)[C@H](Cc1ccc(O)cc1)NC(=O)[C@@H](NC(=O)[C@H](Cc1ccccc1)NC(=O)[C@H](CCCCN)NC(=O)[C@@H](N)CO)C(C)C)C(C)C)C(C)C)C(=O)O [3102.1213] (H-SKFVYVSVM-OH)	8.80
CC[C@H](C)[C@H](N)C(=O)N[C@@H](CC(C)C)C(=O)N[C@@H](C)C(=O)N1CCC[C@H]1C(=O)N[C@@H](CC(N)=O)C(=O)N1CCC[C@H]1C(=O)N[C@@H](CC(N)=O)C(=O)N[C@@H](CCCNC(=N)N)C(=O)N[C@@H](Cc1ccccc1)C(=O)O [3102.1221] (H-ILAPNPNRF-OH)	7.59
CC[C@H](C)[C@H](NC(=O)[C@H](CO)NC(=O)[C@H](C)NC(=O)[C@H](Cc1ccccc1)NC(=O)[C@H](CO)NC(=O)CNC(=O)[C@H](CO)NC(=O)[C@@H](N)Cc1ccccc1)C(=O)N[C@@H](Cc1ccccc1)C(=O)O [3102.1222] (H-FSGSFASIF-OH)	9.49
CSCC[C@H](NC(=O)[C@@H](N)CS)C(=O)N[C@@H](CO)C(=O)N[C@@H](CC(N)=O)C(=O)N[C@@H](CO)C(=O)N[C@@H](CCCNC(=N)N)C(=O)N[C@@H](CC(C)C)C(=O)N[C@@H](CO)C(=O)N[C@@H](Cc1ccccc1)C(=O)O [3102.1225] (H-CMSNSRLSF-OH)	9.00
CC[C@H](C)[C@H](N)C(=O)N[C@@H](CO)C(=O)N[C@H](C(=O)N[C@@H](Cc1ccc(O)cc1)C(=O)N1CCC[C@H]1C(=O)NCC(=O)N[C@@H](CC(N)=O)C(=O)N[C@H](C(=O)N[C@@H](Cc1ccccc1)C(=O)O)[C@@H](C)O)[C@@H](C)O [3102.1229] (H-ISTYPGNTF-OH)	9.32
CC(C)C[C@H](NC(=O)[C@H](CO)NC(=O)[C@H](CC(C)C)NC(=O)CNC(=O)[C@H](CS)NC(=O)[C@H](CO)NC(=O)[C@H](Cc1ccccc1)NC(=O)[C@H](CCCCN)NC(=O)[C@@H](N)Cc1ccc(O)cc1)C(=O)O [3102.1230] (H-YKFSCGLSL-OH)	9.89
CC(C)C[C@H](NC(=O)[C@H](Cc1ccc(O)cc1)NC(=O)[C@H](CCC(N)=O)NC(=O)[C@H](Cc1ccccc1)NC(=O)[C@H](CCC(N)=O)NC(=O)[C@@H]1CCCN1C(=O)[C@H](CCC(N)=O)NC(=O)[C@H](CCC(N)=O)NC(=O)[C@@H](N)Cc1ccccc1)C(=O)O [3102.1233] (H-FQQPQFQYL-OH)	7.64
CC[C@H](C)[C@H](NC(=O)[C@@H](NC(=O)[C@H](CC(C)C)NC(=O)[C@H](CCSC)NC(=O)[C@H](CCCCN)NC(=O)[C@@H](N)CC(N)=O)[C@@H](C)O)C(=O)N[C@H](C(=O)N[C@@H](CO)C(=O)N[C@@H](Cc1ccccc1)C(=O)O)[C@@H](C)O [3102.1234] (H-NKMLTITSF-OH)	8.85
C[C@H](NC(=O)[C@@H](N)CCCNC(=N)N)C(=O)N[C@@H](CO)C(=O)N[C@@H](CO)C(=O)NCC(=O)N[C@@H](CC(=O)O)C(=O)N[C@@H](CO)C(=O)N[C@@H](CO)C(=O)N[C@@H](Cc1ccccc1)C(=O)O [3102.1236] (H-RASSGDSSF-OH)	7.68
CC(C)C[C@H](NC(=O)[C@@H](NC(=O)[C@H](CCCNC(=N)N)NC(=O)[C@H](CC(N)=O)NC(=O)[C@H](CC(N)=O)NC(=O)[C@H](CCCCN)NC(=O)[C@@H](N)CCCCN)C(C)C)C(=O)N[C@@H](CS)C(=O)N[C@@H](Cc1ccccc1)C(=O)O [3102.1237] (H-KKNNRVLCF-OH)	8.80
CC[C@H](C)[C@H](N)C(=O)N[C@@H](CCCCN)C(=O)N[C@@H](CCCNC(=N)N)C(=O)N[C@H](C(=O)N[C@@H](CO)C(=O)N[C@@H](CO)C(=O)N[C@@H](CO)C(=O)N[C@@H](CC(=O)O)C(=O)N[C@@H](Cc1ccccc1)C(=O)O)C(C)C [3102.1239] (H-IKRVSSSDF-OH)	8.74
CC(C)C[C@H](NC(=O)[C@H](CC(C)C)NC(=O)[C@H](CCCNC(=N)N)NC(=O)[C@H](CCCNC(=N)N)NC(=O)[C@@H](NC(=O)[C@H](Cc1c[nH]cn1)NC(=O)[C@@H](N)Cc1ccccc1)C(C)C)C(=O)N[C@@H](CCCCN)C(=O)N[C@@H](Cc1ccccc1)C(=O)O [3102.1241] (H-FHVRRLLKF-OH)	7.68
CC[C@H](C)[C@H](NC(=O)[C@H](CS)NC(=O)[C@@H](NC(=O)[C@H](CC(N)=O)NC(=O)[C@@H]1CCCN1C(=O)[C@H](Cc1ccc(O)cc1)NC(=O)[C@H](CC(C)C)NC(=O)[C@@H](N)CO)C(C)C)C(=O)N[C@@H](Cc1ccccc1)C(=O)O [3102.1246] (H-SLYPNVCIF-OH)	8.31
CSCC[C@H](NC(=O)[C@@H](N)CCCNC(=N)N)C(=O)N[C@@H](Cc1ccccc1)C(=O)NCC(=O)N[C@@H](CO)C(=O)N[C@@H](CCCCN)C(=O)N1CCC[C@H]1C(=O)N[C@H](C(=O)N[C@@H](Cc1ccccc1)C(=O)O)[C@@H](C)O [3102.1247] (H-RMFGSKPTF-OH)	9.68
CSCC[C@H](NC(=O)[C@H](CCCCN)NC(=O)[C@H](CCC(N)=O)NC(=O)[C@@H](N)CCCCN)C(=O)N[C@@H](Cc1ccccc1)C(=O)N[C@@H](CO)C(=O)N[C@@H](CC(N)=O)C(=O)N[C@@H](CC(N)=O)C(=O)N[C@H](C(=O)O)C(C)C [3102.1248] (H-KQKMFSNNV-OH)	7.72
CSCC[C@H](NC(=O)[C@@H](N)CC(C)C)C(=O)N[C@H](C(=O)N[C@@H](CO)C(=O)NCC(=O)N1CCC[C@H]1C(=O)N[C@@H](CC(N)=O)C(=O)N[C@H](C(=O)N[C@H](C(=O)O)C(C)C)C(C)C)C(C)C [3102.1249] (H-LMVSGPNVV-OH)	8.42
CC[C@H](C)[C@H](N)C(=O)N[C@@H](CCCCN)C(=O)N[C@H](C(=O)N[C@H](C(=O)N[C@@H](C)C(=O)N[C@@H](C)C(=O)N[C@@H](CO)C(=O)N1CCC[C@H]1C(=O)N[C@@H](CCSC)C(=O)O)[C@@H](C)O)C(C)C [3102.1251] (H-IKVTAASPM-OH)	8.55
CSCC[C@H](NC(=O)[C@@H](N)CCCCN)C(=O)N[C@@H](C)C(=O)N[C@@H](C)C(=O)N[C@@H](CC(=O)O)C(=O)N[C@@H](CCCNC(=N)N)C(=O)NCC(=O)N[C@@H](C)C(=O)N[C@@H](Cc1ccccc1)C(=O)O [3102.1255] (H-KMAADRGAF-OH)	8.60
CC(C)[C@H](NC(=O)[C@H](CCCCN)NC(=O)[C@@H](N)CCCCN)C(=O)N[C@@H](Cc1ccc(O)cc1)C(=O)N[C@H](C(=O)N[C@@H](Cc1ccccc1)C(=O)N[C@@H](Cc1ccccc1)C(=O)N[C@@H](CCCCN)C(=O)N[C@@H](Cc1ccccc1)C(=O)O)[C@@H](C)O [3102.1257] (H-KKVYTFFKF-OH)	8.44
CC[C@H](C)[C@H](NC(=O)[C@H](Cc1ccc(O)cc1)NC(=O)[C@H](CCC(N)=O)NC(=O)[C@@H](N)Cc1ccc(O)cc1)C(=O)N[C@@H](Cc1ccccc1)C(=O)N[C@@H](CC(C)C)C(=O)N[C@@H](CO)C(=O)N[C@@H](Cc1ccccc1)C(=O)N[C@@H](Cc1ccccc1)C(=O)O [3102.1259]	9.03
CC[C@H](C)[C@H](N)C(=O)N[C@@H](CC(C)C)C(=O)N[C@@H](Cc1c[nH]cn1)C(=O)N[C@H](C(=O)N[C@@H](CC(=O)O)C(=O)N[C@H](C(=O)N[C@@H](CC(C)C)C(=O)N[C@@H](CO)C(=O)N[C@@H](Cc1ccccc1)C(=O)O)[C@@H](C)CC)C(C)C [3102.1261] (H-ILHVDILSF-OH)	7.62
CC(C)C[C@H](NC(=O)[C@H](CCC(=O)O)NC(=O)[C@@H](NC(=O)[C@H](CO)NC(=O)[C@H](CO)NC(=O)[C@@H](NC(=O)[C@H](CCC(N)=O)NC(=O)[C@@H](N)CO)C(C)C)[C@@H](C)O)C(=O)N[C@@H](Cc1ccccc1)C(=O)O [3102.1264] (H-SQVSSTELF-OH)	8.74
CC(C)C[C@H](N)C(=O)N[C@@H](CCCCN)C(=O)N[C@@H](Cc1ccc(O)cc1)C(=O)N[C@@H](Cc1ccc(O)cc1)C(=O)N[C@@H](Cc1ccc(O)cc1)C(=O)N[C@@H](CO)C(=O)N[C@@H](CC(N)=O)C(=O)N[C@@H](CO)C(=O)N[C@@H](Cc1ccc(O)cc1)C(=O)O [3102.1265] (H-LKYYYSNSY-OH)	9.62
CC(C)C[C@H](NC(=O)[C@H](CC(N)=O)NC(=O)[C@H](C)NC(=O)[C@H](CO)NC(=O)[C@H](CC(C)C)NC(=O)[C@H](CCCNC(=N)N)NC(=O)[C@H](CC(C)C)NC(=O)[C@@H](N)Cc1ccccc1)C(=O)N[C@@H](Cc1ccccc1)C(=O)O [3102.1266] (H-FLRLSANLF-OH)	9.92
CC(C)[C@H](NC(=O)[C@H](Cc1ccc(O)cc1)NC(=O)[C@H](CCCNC(=N)N)NC(=O)[C@@H](NC(=O)[C@H](CC(N)=O)NC(=O)[C@H](Cc1ccc(O)cc1)NC(=O)[C@H](CCCCN)NC(=O)[C@@H](N)CCCCN)C(C)C)C(=O)N[C@@H](Cc1ccccc1)C(=O)O [3102.1267] (H-KKYNVRYVF-OH)	9.00
CSCC[C@H](NC(=O)[C@H](C)N)C(=O)N[C@@H](CCCCN)C(=O)N[C@H](C(=O)N[C@@H](CC(=O)O)C(=O)N[C@@H](C)C(=O)N[C@@H](CC(N)=O)C(=O)N[C@@H](Cc1ccc(O)cc1)C(=O)N[C@@H](Cc1ccccc1)C(=O)O)C(C)C [3102.1268] (H-AMKVDANYF-OH)	9.82
CC(C)C[C@H](NC(=O)[C@@H](N)Cc1ccccc1)C(=O)N[C@@H](CO)C(=O)N[C@@H](CCC(=O)O)C(=O)N1CCC[C@H]1C(=O)N[C@@H](Cc1ccc(O)cc1)C(=O)N[C@@H](CO)C(=O)N[C@@H](Cc1ccc(O)cc1)C(=O)N[C@@H](Cc1ccccc1)C(=O)O [3102.1270] (H-FLSEPYSYF-OH)	7.54
CC(C)[C@H](NC(=O)[C@H](Cc1ccccc1)NC(=O)[C@H](Cc1c[nH]cn1)NC(=O)[C@H](CCC(N)=O)NC(=O)[C@@H](N)Cc1ccc(O)cc1)C(=O)N[C@@H](C)C(=O)N[C@@H](CCCNC(=N)N)C(=O)N[C@H](C(=O)N[C@@H](Cc1ccccc1)C(=O)O)C(C)C [3102.1278] (H-YQHFVARVF-OH)	9.40
CC(C)C[C@H](N)C(=O)N[C@@H](CCCCN)C(=O)N[C@@H](CO)C(=O)N1CCC[C@H]1C(=O)N[C@@H](CCCCN)C(=O)N[C@@H](CCCNC(=N)N)C(=O)N[C@@H](CS)C(=O)N[C@@H](CO)C(=O)N[C@@H](Cc1ccccc1)C(=O)O [3102.1282] (H-LKSPKRCSF-OH)	8.57
CSCC[C@H](NC(=O)[C@H](Cc1ccc(O)cc1)NC(=O)[C@H](CC(N)=O)NC(=O)[C@H](Cc1ccc(O)cc1)NC(=O)[C@H](CO)NC(=O)[C@H](CCCCN)NC(=O)[C@@H](NC(=O)[C@H](CCCCN)NC(=O)[C@@H](N)CCCNC(=N)N)C(C)C)C(=O)O [3102.1285] (H-RKVKSYNYM-OH)	8.59

— article PMC2248166, “Quantitative peptide binding motifs for 19 human and mouse MHC class I molecules derived using positional scanning combinatorial peptide libraries” (Immunome Research, 2008)
